According to article PMC3194046 (European journal of pharmacology, 2009):

How the values were obtained:
dopamine (D2) receptor = conditions: ref Kumagai et al., 2000; cited from earlier work
[1] = target: T1, purified guinea pig sigma1 receptor (Cavia porcellus, UniProt Q60492); assay: Competition binding of [3H]-; conditions: for inhibition of [3H]-(+)-pentazocine binding to the sigma1 receptor: Fig. 2A, 2B
[2] = target: T2, sigma1 receptor in guinea pig liver membranes (Cavia porcellus, UniProt Q60492); assay: Competition binding of [3H]-
sigma2 receptor = target: T3, sigma2 receptor (Rattus norvegicus, UniProt Q5U3Y7); assay: Sigma2 receptor binding with [3H]-DTG on rat liver membranes, 100 nM; conditions: 100 nM (+)-pentazocine
T3 sequence (Q5U3Y7 1-176): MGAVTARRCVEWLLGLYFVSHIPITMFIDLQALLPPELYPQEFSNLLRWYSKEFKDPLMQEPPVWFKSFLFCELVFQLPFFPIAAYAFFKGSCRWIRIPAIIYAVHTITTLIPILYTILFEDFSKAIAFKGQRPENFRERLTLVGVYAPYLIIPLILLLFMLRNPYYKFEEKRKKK

[3] = target: T2, sigma1 receptor in guinea pig liver membranes; assay: Saturation equilibrium binding of [3H]-; conditions: saturation binding and Scatchard transformation
sigma1 receptor [4] = target: T4, sigma1 receptor (Cavia porcellus, UniProt Q60492); assay: Inhibition of [3H]-; format: binding
sigma1 receptor [5] = target: T4, sigma1 receptor; assay: Inhibition of [3H]-; format: binding; conditions: HEK-293 homogenates S1,SK1; 2 mM ATP, 5 mM MgCl2; concentrations as high as 100 µM
pure sigma1 receptor = pure sigma1 receptor (Cavia porcellus, UniProt Q60492); conditions: for inhibition of [125I]Iodoazidococaine photolabeling: 10 µM compound, 1 nM photoprobe; for relative inhibition of [125I]-Iodoazidococaine photolabeling: compounds at 0.1 µM, 1 µM and 10 µM
[6] = target: T1, purified guinea pig sigma1 receptor; conditions: ref Moebius et al., 1997; Ramachandran et al., 2007; cited from earlier work
[7] = target: T2, sigma1 receptor in guinea pig liver membranes; conditions: ref Moebius et al., 1997; Ramachandran et al., 2007; cited from earlier work

Chain of pure sigma1 receptor (Q60492 whole entry): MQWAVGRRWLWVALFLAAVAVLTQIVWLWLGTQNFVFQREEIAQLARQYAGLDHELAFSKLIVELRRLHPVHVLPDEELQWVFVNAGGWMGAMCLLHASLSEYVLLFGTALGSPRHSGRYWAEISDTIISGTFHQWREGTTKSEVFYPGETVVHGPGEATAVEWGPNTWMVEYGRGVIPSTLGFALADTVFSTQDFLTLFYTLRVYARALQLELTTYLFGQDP
T2 sequence (Q60492 whole entry): as above
T1 sequence (Q60492 whole entry): as above
T4 sequence (Q60492 whole entry): as above

Compound | affinity for the sigma2 receptor (sigma2 receptor) | inhibition of [125I]Iodoazidococaine photolabeling (pure sigma1 receptor) | relative inhibition of [125I]-Iodoazidococaine photolabeling (pure sigma1 receptor) | inhibition of [3H]-(+)-pentazocine binding to the sigma1 receptor [1] | also measured
CCCCCCC[C@@H]1CC[C@@H](CCCC)N1 [(2R-trans)-2-Butyl-5-heptylpyrrolidine] | – | – | – | – | affinity for the dopamine (D2) receptor (dopamine (D2) receptor): high affinity
CCCCCCCCCCCCC/C=C/[C@@H](O)[C@@H](N)CO [D-erythro-sphingosine] | much lower binding affinity | inhibition of photolabeling | – | – | Ki [1]: 140 ± 20 nM; Ki [2]: 13000 ± 3100 nM; mode of inhibition of [3H]-(+)-pentazocine binding [3]: simple competitive interaction; Ki (sigma1 receptor [4]): 3600 ± 600 nM; inhibition of [3H]-(+)-pentazocine binding (sigma1 receptor [5]): did not show a significant inhibition
CCCCCCCCCCCCC/C=C/[C@H](O)[C@@H](N)CO [L-threo-sphingosine] | – | – | – | – | fold more potent at the pure sigma1 receptor than the naturally occurring isomer ([1]; L-threo compared to naturally occurring isomer): approximately 10 fold
CCCCCCCCCCCCC/C=C/[C@@H](O)[C@H](CO)N(C)C [N, N dimethyl sphingosine] | much lower binding affinity | inhibition of photolabeling | marginally better than D-erythro sphingosine | – | –
CCCCCCCCCCCCN [dodecylamine] | – | – | – | – | Ki [1]: 183 ± 17 nM
CCCCCCCCCCCCCCC[C@@H](O)[C@@H](N)CO [sphinganine] | much lower binding affinity | – | – | – | –
CCCCCCCCCCCCC/C=C/[C@@H](O)[C@@H](N)COP(=O)(O)O [sphingosine-1 phosphate] | did not bind | did not show significant inhibition | not as effective | failed to do so | –
CCCCCCCCCCCCCN1CC(C)OC(C)C1 (stereo not drawn) [tridemorph] | – | – | – | – | affinity on the pure sigma1 receptor [6]: high affinity; affinity for the sigma1 receptor in guinea pig liver membranes [7]: high affinity
ceramide | – | – | not as effective | failed to inhibit | –
ceramide-1 phosphate | – | – | not as effective | failed to inhibit | –
